# Data as given in article PMC5104769, “Concentration-Dependent Dual Mode of Zn Action at Serotonin 5-HT1A Receptors: In Vitro and In Vivo Studies” (Molecular neurobiology, 2015).
# Columns and labels:
# [1] = biological target: T1, human 5-HT1AR stably expressed in HEK293 cells (Homo sapiens, UniProt P08908); experiment: Association and dissociation kinetic assays of [3H]-8-OH-DPAT; type: binding
# T1 construct: The full-length human 5HTR1A complementary DNA (cDNA); membranes prepared from the cells
# T1 sequence (P08908 1-422): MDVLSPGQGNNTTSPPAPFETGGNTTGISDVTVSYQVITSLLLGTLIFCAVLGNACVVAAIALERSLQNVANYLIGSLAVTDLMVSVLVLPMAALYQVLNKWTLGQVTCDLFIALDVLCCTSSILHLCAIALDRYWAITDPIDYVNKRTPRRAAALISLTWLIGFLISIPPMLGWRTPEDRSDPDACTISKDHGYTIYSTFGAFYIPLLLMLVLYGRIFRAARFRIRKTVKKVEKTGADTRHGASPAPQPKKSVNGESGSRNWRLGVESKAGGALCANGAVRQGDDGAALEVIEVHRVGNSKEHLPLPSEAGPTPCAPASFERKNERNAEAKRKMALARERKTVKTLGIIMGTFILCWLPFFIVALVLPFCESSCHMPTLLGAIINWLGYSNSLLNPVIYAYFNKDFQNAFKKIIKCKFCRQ
# Experimental: Non-specific binding was defined by the addition of 10 μM serotonin. The amount of radioligand bound to the receptor was measured at different time intervals during a total incubation of 60 min in the absence or presence of 10 and 500 μM ZnCl2. For the dissociation assay, after incubating the membranes with radioligand for 60 min to achieve equilibrium, serotonin (10 μM), either alone or together with 10 or 500 μM of ZnCl2, was added, and the specifically bound radioligand was measured after incubations of different durations (from 0 to 60 min), which were terminated by rapid filtration.
# 5-HT3 receptor = system: 5-HT3 receptor; set-up: method as in PMID 7620711; details: electrophysiology, cited from earlier work
# [2] = Body temperature in wild-type and 5-HT1A autoreceptor KO mice; type: in vivo, mouse; details: Zn 5 mg/kg (Zn chloride), 30 and 60 min
# From the text: (§1) A conditional knockout approach was used to eliminate the 5-HT1AR in the raphe nuclei in adult mice. To create the conditional 5-HT1AR knockout mice, a TPH2-Cre-ER^T2 mouse line was crossed with a flx-5-HT1A-YFP mouse line. The TPH2-Cre-ER^T2 confers specificity such that only serotonin neurons, which express tryptophan hydroxylase 2 (TPH2), can express Cre recombinase to knockout the 5-HT1AR gene and allow for […] expression. Once the mice reached adulthood (approximately 5–6 postnatal weeks), tamoxifen (180 mg/kg) was injected i.p. every day for five consecutive days (the tamoxifen binds to the ER^T2 domain and enables Cre to enter the nucleus where it can excise the 5-HT1AR gene, allowing for YFP expression as a marker of recombination). The mice were then left undisturbed for at least 14 days to allow for recombination and the turnover of endogenous 5-HT1ARs.
# A separate experiment was performed to measure the effect of Zn on rectal body temperature in wild-type and 5-HT1A autoreceptor KO mice; however, in this experiment, only the higher dose of Zn (5 mg Zn/kg; Zn chloride, Sigma) was used.
# [3] = biological target: T1, human 5-HT1AR stably expressed in HEK293 cells; experiment: Competition and competition-like (Zn titration) binding against 2.5 nM [3H]-8-OH-DPAT; details: 2.5 nM radioligand
# Experimental: The full-length human 5HTR1A complementary DNA (cDNA), which was cloned into the mammalian expression vector pcDNA3.1(+), was obtained from the Missouri S&T cDNA Resource Center (www.cdna.org). The receptor cDNA was stably transfected into human embryonic kidney cells (HEK293, ATCC) with the use of Lipofectamine 2000 (Invitrogen).
# Cell pellets were thawed and homogenized in 20 volumes of 50 mM Tris–HCl buffer (pH 7.7) containing 0.1 mM EDTA and 10 mM MgCl2, using an Ultra Turrax tissue homogenizer. The pellets were then centrifuged twice at 35,000g for 20 min at 4 °C, with incubation for 15 min at 37 °C in between centrifugations. Membranes were aliquoted in tubes. Membrane protein concentrations were determined using the Pierce™ Coomassie (Bradford) Protein Assay Kit, with bovine serum albumin (BSA) as a standard.
# The incubation buffer consisted of 50 mM Tris–HCl (pH 7.7), 10 mM MgCl2, 10 mM pargyline and 0.1 % ascorbic acid. Radioligand binding assays were performed by incubating 30 μg of protein of the membrane suspension in 96-well microtitre plates for 60 min at room temperature with shaking, in a total volume of 200 μl. The binding reactions were stopped by filtration through GF/C Unifilter plates using a harvester (PerkinElmer). […] Radioactivity was measured using a MicroBeta TriLux counter (PerkinElmer).
# Sprague Dawley rats = experiment: Forced swim test (FST) in rats; type: in vivo, rat
# Experimental: The test was carried out according to the method described previously [10]. On day one of the experiment, the animals were individually placed in plexiglass cylinders (40 cm in height, 18 cm in diameter), containing 25 cm of water maintained at 24–25 °C for a 15-min habituation period. After the rats were removed from the water, they were again placed in their home cages. On the second day, the rats were again placed in the cylinders, and the total duration of immobility was measured for a 5-min test period. Zn (1 or 2 mg Zn/ kg, given as Zn hydroaspartate) and 8-OH-DPAT (0.1 or 0.3 mg/kg) were administered alone or jointly 30 min before the test. WAY-100635 (0.1 mg/kg) was administered 15 min before the Zn treatment.
# [4] = system: 5-HT1A autoreceptor KO mice; experiment: Forced swim test (FST) in wild-type and 5-HT1A autoreceptor KO mice; type: in vivo, mouse; details: Zn 5 mg/kg 30 min before FST
# From the text: as §1
# The behaviour of the mice in the water was recorded using a video camera. The test was performed under red lighting. The cylinder was filled with almost 4 l of water, to a depth that exceeded the distance to which the tail could extend, so the mouse could not balance on its tail at the bottom of the cylinder. […] The mice were placed in the individual glass cylinder (22 cm diameter×37 cm high) for a standard 6-min test; however, the total duration of immobility from the last 4 min of the test was analysed. […]
smiles,measurement,setting,value
"[Zn+2] [Zn, Zinc]",effect on association rate of [3H]-8-OH-DPAT,[1]; 10 μM of Zn ions,small increase in the association rate
same,effect on association rate of [3H]-8-OH-DPAT,[1]; 500 μM Zn,no effect on the kon values
same,effect on dissociation rate of [3H]-8-OH-DPAT,[1]; high Zn concentration (500 μM),both phases were significantly reduced
same,effect on dissociation rate of [3H]-8-OH-DPAT,[1]; low Zn concentration (10 μM),disappearance of the fast radioligand dissociation rate
same,Zn concentrations that depressed the 5-HT-induced response,5-HT3 receptor; high concentrations,30 to 200 µM
same,Zn concentrations that enhanced the 5-HT-induced response,5-HT3 receptor; low concentrations,0.3 to 10 µM
same,change in body temperature,[2],decreased the body temperature of the wild-type mice
same,increase of [3H]-8-OH-DPAT specific binding,"[3]; 10 μM of Zn, bell-shaped titration curve",~ 25%
same,effect on [3H]-8-OH-DPAT specific binding,[3]; Zn at >100 μM,inhibition
same,immobility time in the FST,"Sprague Dawley rats; Zn 1 mg/kg, 30 min before test (Fig. 5a)",not 1 mg/kg significantly decreased the immobility time
same,immobility time in the FST,"Sprague Dawley rats; Zn 2 mg/kg, 30 min before test (Fig. 5a)",significantly decreased the immobility time
same,immobility time in the FST,Sprague Dawley rats; Zn 2 and 5 mg/kg (Fig. 5b),significantly decreased the immobility time
same,immobility time in the FST,"Sprague Dawley rats; Zn given jointly with 8-OH-DPAT at doses ineffective alone, vs VEH",significantly decreased the immobility time
same,decrease in the immobility time,"[4]; 5-HT1A autoreceptor KO mice, vs VEH-treated KO mice",30%
same,immobility time in the FST,[4]; wild-type mice,significant decrease in immobility time
